ChEMBL document CHEMBL3526000 (Drug Metab Dispos, 2012)

Legend:
UGT1A4 = target: T1, UGT1A4 (Homo sapiens, UniProt P22310); assay: Drug metabolism assessed as recombinant human UGT1A4 assessed as O-glucuronidation at 10 to 400 uM incubated for 60 mins by LC-MS/MS analysis
T1 sequence (P22310 whole entry): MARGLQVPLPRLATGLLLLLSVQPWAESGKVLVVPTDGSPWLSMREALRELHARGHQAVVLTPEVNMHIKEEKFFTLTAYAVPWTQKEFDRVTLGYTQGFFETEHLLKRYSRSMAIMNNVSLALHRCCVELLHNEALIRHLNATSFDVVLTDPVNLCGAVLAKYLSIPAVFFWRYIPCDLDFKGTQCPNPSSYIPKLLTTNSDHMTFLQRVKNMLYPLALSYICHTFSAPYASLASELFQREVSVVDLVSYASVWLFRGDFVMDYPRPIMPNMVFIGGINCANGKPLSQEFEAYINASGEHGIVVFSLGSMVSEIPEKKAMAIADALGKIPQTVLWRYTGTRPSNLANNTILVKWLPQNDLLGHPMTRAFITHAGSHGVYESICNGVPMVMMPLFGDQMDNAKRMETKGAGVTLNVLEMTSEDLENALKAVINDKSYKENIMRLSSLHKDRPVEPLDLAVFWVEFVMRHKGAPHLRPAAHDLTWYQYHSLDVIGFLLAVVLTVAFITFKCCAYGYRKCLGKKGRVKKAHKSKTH

[1] = target: T2, UDP-glucuronosyltransferase 1A1 (Homo sapiens, UniProt P22309); assay: Drug metabolism assessed as recombinant human UGT1A1 assessed as N-glucuronidation at 100 uM incubated for 60 mins by LC-MS/MS analysis; assay type: ADME; conditions: recombinant enzyme, 1 h
T2 sequence (P22309 whole entry): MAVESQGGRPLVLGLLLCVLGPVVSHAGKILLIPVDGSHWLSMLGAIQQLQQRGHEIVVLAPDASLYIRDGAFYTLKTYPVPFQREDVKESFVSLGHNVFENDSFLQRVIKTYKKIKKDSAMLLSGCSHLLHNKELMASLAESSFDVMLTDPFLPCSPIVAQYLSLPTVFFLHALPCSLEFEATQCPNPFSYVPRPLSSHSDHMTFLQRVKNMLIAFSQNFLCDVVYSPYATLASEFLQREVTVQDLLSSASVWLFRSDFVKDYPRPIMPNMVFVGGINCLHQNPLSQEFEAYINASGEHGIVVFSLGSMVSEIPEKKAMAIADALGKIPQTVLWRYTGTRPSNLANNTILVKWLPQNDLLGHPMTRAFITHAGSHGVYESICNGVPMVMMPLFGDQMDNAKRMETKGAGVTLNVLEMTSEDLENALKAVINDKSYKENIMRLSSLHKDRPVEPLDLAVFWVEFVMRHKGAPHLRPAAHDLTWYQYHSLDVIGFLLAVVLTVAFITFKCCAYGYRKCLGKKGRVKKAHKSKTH

- Km at 1 h, 400 µM (UGT1A4): 64 µM
- Drug metabolism [1]: metabolite_not_detected
SMILES: O=C(CCCN1CCC(O)(c2ccc(Cl)cc2)CC1)c1ccc(F)cc1 [HALOPERIDOL]
